Results: publication PMC7023394, “Cell Penetrating Peptide as a High Safety Anti-Inflammation Ingredient for Cosmetic Applications” (Biomolecules, 2020)
Where no end group is shown, it is not given here.

How the values were obtained:
[1] = system: Raw264.7 macrophage cells; assay type: cell-based; settings: 1 µM
Procedure: In this experiment, macrophage (Raw264.7) cells were seeded in 96-well plates (5 × 10^5 cells/mL) and allowed to attach overnight. After attachment, cells were incubated with various concentrations of CPPAIF for 1 h and followed by stimulation with 1 μg/mL of LPS (lipopolysaccharide). No LPS-added cells were considered as control groups. After incubation, the amount of TNF-α and IL-6 in the medium were analyzed by enzyme linked immunosorbent assay (# KHC3011 and #EH2IL6, Thermo Fisher, Waltham, MA, USA). Cell viability was measured by AlamarBlue cell viability assay (BUF012B, Bio-Rad, Hercules, CA, USA).
Figure 5 Anti-inflammation activity of CPPAIF. Raw264.7 macrophage cells were seeded in 96-well plates (5 × 10^5 cells/mL) and allowed to attach overnight. After attachment, the cells were incubated with various concentrations of CPPAIF for 1 h followed by stimulation with 1 μg/mL of LPS. The control group was not treated with LPS and its cytokine secretion was set as 100% (mock). The amounts of TNFα (A) and IL-6 (B) in the medium were analyzed by ELISA. Cell viability was measured by AlamarBlue cell viability assay. *** p < 0.001 versus the control group.

RBL-2H3 mast cells = assay: Mast cell degranulation assay (β-hexosaminidase release); assay type: cell-based, rat; settings: under 10 μM (0, 0.1, 1, 2, 5, 10 μM); PC A23187 set as 100%
Procedure: Inhibitory effects on release of β-hexosaminidase in RBL-2H3 (rat-basophilic leukemia cell line) were evaluated by a cell degranulation assay. Briefly, 0.2 mL of 5 × 10^5 cells/mL RBL-2H3 cells were seed in 24-well plates (in Minimum Essential Medium (MEM) containing 10% Fetal Bovine Serum (FBS), streptomycin (100 µg/mL) and penicillin (100 units/mL)) and sensitized with anti-DNP IgE (0.45 µg/mL). These cells were washed with Siraganian buffer (5 mM KCl, 0.4 mM MgCl2, 119 mM NaCl, 25 mM piperazine-N,N 2-bis(2-ethane sulfonic acid (PIPES), and 40 mM NaOH, pH 7.2) with glucose, 1 mM CaCl2, and 0.1% bovine serum albumin (BSA). After washing, these cell were incubated in 160 µL of the PBS for 10 min at 37 °C and then 20 µL of test sample solution or calcimycin (final 1 mM) was added and further incubated for 10 min. The plate was cooling on ice for 10 min to stop reaction. 50 µL of supernatant was transferred to 96-well plate and added with 50 µL of substrate (1 mM p-nitrophenyl N-acetyl-β-D-glucosaminide) in 0.1 M citrate buffer (pH 4.5) at 37 °C for 2.5 h. The reaction was stopped by adding 200 µL of carbonate-bicarbonate buffer (0.1 M, pH 10.0). The value of A405 was measured with a microplate reader.
Figure 6 Sensitization test of CPPAIF. The sensitization of CPPAIF was evaluated by mast cell degranulation assay. […]

[2] = system: 3D human epidermis tissue model (SkinEthic RHE); assay: Transepidermal measurement by reconstructed human epidermis tissue model; assay type: in vitro ADME; settings: 100 μL containing 100 μM CPPAIF, of exposure (method and legend: 1 h), HPLC, mean ± SD of three
Procedure: 3D human epidermis tissue model (SkinEthic™ RHE, SkinEthics, Lyon, France) and two kinds of CPPAIF-containing emulsion systems (water-in-oil emulsion (W/O) and oil-in-water emulsion (O/W)) were prepared for the transepidermal measurements. […] After treatment liquid beneath the model was collected for HPLC quantification. Transepidermal rate was calculated by measuring the amount of CPPAIF in medium beneath the 3D model by HPLC ((concentration of the beneath liquid/concentration of the topical exposure) × 100).
Figure 8 Transepidermal degree of formulated CPPAIF in SkinEthic^TM RHE model. All 3D reconstructed human epidermis tissues were incubated with growth medium for 2 h, then 0.1 mL formulated CPPAIF (0.1 mM) emulsions were added to the top of the tissues and incubated for 1 h. After treatment the liquid beneath the 3D skin model was collected for HPLC quantification. Transepidermal degree was calculated by measuring the amount of CPPAIF in the liquid beneath the 3D skin model using HPLC. ** p < 0.01 versus the W/O formulation group.

[3] = Stability of CPPAIF in W/O and O/W emulsions (HPLC); assay type: physicochemical; settings: 0.1 mM CPPAIF
[4] = system: SkinEthic RHE 3D reconstructed human epidermis tissue model; assay: In vitro skin irritation test (OECD 439); settings: 1 mM
[5] = system: cysteine- or lysine-containing peptide; assay: In chemico skin sensitization: Direct Peptide Reactivity Assay (DPRA, OECD 442C); settings: for DPRA Prediction: cysteine 1:10/lysine 1:50 prediction model
Procedure: The direct peptide reactivity assay (DPRA) is an in chemico method which quantified the remaining concentration of cysteine- or lysine-containing peptide after 24 h incubation with the test chemical at 25 °C. Relative peptide concentration was measured by HPLC (Waters, Milford, MA, USA) with gradient elution and UV detection (220 nm). […] This model allowed to classify the test chemical to one of four reactivity classes used to support the discrimination between sensitisers and non-sensitisers.

HaCaT cells = assay: Internalization of TMR-CPPAIF in human keratinocytes (confocal microscopy); assay type: cell-based; settings: 20 µM, 37 °C, 30 min, confocal laser-scanning microscopy
Procedure: Confocal Laser-scanning Microscopy (CLSM, Zeiss Cell Observer-Z1, Baden-Württemberg, Germany) was performed to assess distribution of TMR-labeled CPPAIF (tetramethylrhodamine-[…], synthesized by Kelowna International Scientific, Taipei, Taiwan) in human keratinocytes, HaCaT. First, apply a layer of type I collagen on a glass cover slip, dry and sterilize the cover slip with UV light. Then, culture the HaCaT cells ([…] per slip) on the coverslip for 16 h. The attached HaCaT cells were cultured with 20 μM of the TMR- CPPAIF for 30 min, observed with CLSM (63× oil-immersion objective lens), and photographed under same exposure conditions.
Figure 7 Internalization of TMR-CPPAIF. HaCaT cells (1 × 10^3) were seeded on collagen I coated cover slide and incubated at 37 °C for 16 h. The cells were then incubatd with 20 μM of TMR-CPPAIF at 37 °C for 30 min. After washing and fixing, the cells were mounted and monitored by confocal microscopy. Red: TMR; Blue: nuclear staining with DAPI. (Magnification: 63×).

[6] = test item 100 mM, 24 h, 25 °C, HPLC, UV 220 nm

NYRWRCKNQN [CPPAIF]
cell viability [1]: 85.2 ± 4.25%
mast cell degranulation release (β-hexosaminidase) (RBL-2H3 mast cells): did not induce any mast cell degranulation release
Transepidermal degree ((concentration in the beneath liquid/concentration in the topical exposure) × 100) ([2]; O/W formulation): 28.4 ± 1.7%
Transepidermal degree ((concentration in the beneath liquid/concentration in the topical exposure) × 100) ([2]; W/O formulation): 41.4 ± 3.6%
stability of CPPAIF in emulsion compositions [3]: did not influence stability
skin irritation classification of OECD 439 [4]: did not cause skin irritation (no category)
DPRA Prediction ([5]; test item 0.1 mM): Non-sensitiser

OCCOc1ccccc1 [Phenoxyethanol, phenoxyethanol]
Cysteine Depletion [5, 6]: 1.38%
Lysine Depletion [5, 6]: −0.25%
Mean of Cysteine and Lysine % Depletion [5, 6]: 0.56%
DPRA Prediction ([5]; test item 100 mM): Non-sensitiser

tetramethylrhodamine-NYRWRCKNQN [TMR-CPPAIF, tetramethylrhodamine-labeled CPPAIF]
internalization into cells (TMR signal) (HaCaT cells): internalized into the cells
